Assay results taken from ChEMBL document CHEMBL1909046, “DrugMatrix in vitro pharmacology data”.

Experiments:
[1] = DRUGMATRIX: beta-Lactamase enzyme inhibition (substrate: Nitrocefin); set-up: species or system Bacillus cereus; conditions: Not Active = under 50% inhibition at 10 µM
[2] = biological target: T1, B2 bradykinin receptor (Homo sapiens, UniProt P30411); type: cell membranes, Membrane; conditions: chem-1; further: in other assays of this panel Not Active means under 50% inhibition at 10 µM
T1 sequence (P30411 whole entry): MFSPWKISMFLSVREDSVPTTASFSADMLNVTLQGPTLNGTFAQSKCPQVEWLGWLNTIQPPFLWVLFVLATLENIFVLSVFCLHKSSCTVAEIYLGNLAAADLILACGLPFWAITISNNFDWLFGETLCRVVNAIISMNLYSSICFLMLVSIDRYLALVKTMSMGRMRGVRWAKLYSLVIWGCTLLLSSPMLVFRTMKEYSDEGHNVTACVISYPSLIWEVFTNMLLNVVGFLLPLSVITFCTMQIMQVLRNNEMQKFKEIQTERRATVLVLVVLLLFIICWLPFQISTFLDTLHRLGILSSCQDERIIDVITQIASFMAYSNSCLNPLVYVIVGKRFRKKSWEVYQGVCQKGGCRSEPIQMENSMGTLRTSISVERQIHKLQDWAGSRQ

[3] = DRUGMATRIX: Sigma2 radioligand binding (ligand: [3H] Ifenprodil); type: cell membranes, Rattus norvegicus, Wistar, Brain, Membrane; conditions: Not Active = under 50% inhibition at 10 µM
[4] = DRUGMATRIX: Tumor Necrosis Factor (TNF), Non-Selective radioligand binding (ligand: [125I] TNF-alpha); type: cell membranes, Membrane; conditions: u-937; Not Active = under 50% inhibition at 10 µM
[5] = biological target: Cannabinoid receptor 1 (Homo sapiens, UniProt P21554); type: cell membranes, Membrane; conditions: chem-1; further: in other assays of this panel Not Active means under 50% inhibition at 10 µM
[6] = biological target: Carbonic anhydrase 2 (Homo sapiens, UniProt P00918); assay: DRUGMATRIX: Carbonic Anhydrase II enzyme inhibition (substrate: 4-Nitrophenyl acetate (4-NPA)); type: tissue-based, Erythrocyte; conditions: erythrocyte; Not Active = under 50% inhibition at 10 µM
[7] = biological target: Sodium-dependent dopamine transporter (Homo sapiens, UniProt Q01959); assay: DRUGMATRIX: Dopamine Transporter radioligand binding (ligand: [125I] RTI-55); type: cell membranes, CHO-K1, Membrane; conditions: cho-k1; Not Active = under 50% inhibition at 10 µM
[8] = biological target: T2, Leukotriene C4 synthase (Cavia porcellus, UniProt A6XA80); assay: biochemical; type: tissue-based, Lung;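 further: enzyme inhibition assay of leukotriene C4 synthase, using LTA4 as the substrate; in other assays of this panel Not Active means under 50% inhibition at 10 µM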
T2 sequence (A6XA80 whole entry): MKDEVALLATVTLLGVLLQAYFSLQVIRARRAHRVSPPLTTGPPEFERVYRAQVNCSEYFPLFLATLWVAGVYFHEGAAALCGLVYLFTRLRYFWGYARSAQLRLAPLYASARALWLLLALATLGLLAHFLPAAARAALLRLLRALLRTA

[9] = biological target: Melanocortin receptor 5 (Homo sapiens, UniProt P33032); type: cell membranes, HEK293, Membrane; conditions: hek293; further: in other assays of this panel Not Active means under 50% inhibition at 10 µM
[10] = biological target: T3, Nitric oxide synthase, inducible (Mus musculus, UniProt P29477); set-up: species or system Escherichia coli
T3 sequence (P29477 whole entry): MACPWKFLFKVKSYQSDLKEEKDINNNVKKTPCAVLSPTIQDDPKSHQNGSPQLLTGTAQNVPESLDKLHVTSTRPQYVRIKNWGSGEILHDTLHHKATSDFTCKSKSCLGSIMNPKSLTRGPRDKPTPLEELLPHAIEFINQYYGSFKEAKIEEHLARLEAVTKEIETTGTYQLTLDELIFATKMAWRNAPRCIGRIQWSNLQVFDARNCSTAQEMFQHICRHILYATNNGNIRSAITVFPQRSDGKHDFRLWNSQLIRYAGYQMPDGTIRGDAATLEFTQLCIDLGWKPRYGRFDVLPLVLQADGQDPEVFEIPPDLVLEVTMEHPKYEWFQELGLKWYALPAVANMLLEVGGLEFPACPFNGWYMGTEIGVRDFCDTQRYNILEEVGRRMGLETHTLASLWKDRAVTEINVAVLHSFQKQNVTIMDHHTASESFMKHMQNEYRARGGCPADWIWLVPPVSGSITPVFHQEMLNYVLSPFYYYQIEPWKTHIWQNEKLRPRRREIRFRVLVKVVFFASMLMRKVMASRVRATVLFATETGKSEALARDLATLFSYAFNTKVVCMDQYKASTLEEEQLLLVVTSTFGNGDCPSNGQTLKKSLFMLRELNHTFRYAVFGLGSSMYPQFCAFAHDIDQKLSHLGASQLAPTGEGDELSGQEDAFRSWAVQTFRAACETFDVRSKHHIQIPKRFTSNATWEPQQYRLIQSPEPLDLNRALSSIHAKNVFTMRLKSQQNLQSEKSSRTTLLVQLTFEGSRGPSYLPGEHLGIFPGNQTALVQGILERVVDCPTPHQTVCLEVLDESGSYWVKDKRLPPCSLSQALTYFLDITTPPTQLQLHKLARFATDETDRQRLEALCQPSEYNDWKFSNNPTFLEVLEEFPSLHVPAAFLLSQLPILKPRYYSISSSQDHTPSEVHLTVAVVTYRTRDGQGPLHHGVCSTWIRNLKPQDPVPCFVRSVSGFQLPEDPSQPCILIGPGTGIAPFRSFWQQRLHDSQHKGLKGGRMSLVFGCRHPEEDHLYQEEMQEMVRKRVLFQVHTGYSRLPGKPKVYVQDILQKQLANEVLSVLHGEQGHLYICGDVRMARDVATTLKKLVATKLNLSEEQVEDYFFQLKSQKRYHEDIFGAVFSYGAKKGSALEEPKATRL

[11] = biological target: Platelet-activating factor receptor (Homo sapiens, UniProt P25105); assay: biochemical; type: tissue-based; conditions: platelet; further: in other assays of this panel Not Active means under 50% inhibition at 10 µM
[12] = biological target: T4, Cathepsin G (Homo sapiens, UniProt P08311); type: tissue-based; conditions: neutrophil
T4 sequence (P08311 whole entry): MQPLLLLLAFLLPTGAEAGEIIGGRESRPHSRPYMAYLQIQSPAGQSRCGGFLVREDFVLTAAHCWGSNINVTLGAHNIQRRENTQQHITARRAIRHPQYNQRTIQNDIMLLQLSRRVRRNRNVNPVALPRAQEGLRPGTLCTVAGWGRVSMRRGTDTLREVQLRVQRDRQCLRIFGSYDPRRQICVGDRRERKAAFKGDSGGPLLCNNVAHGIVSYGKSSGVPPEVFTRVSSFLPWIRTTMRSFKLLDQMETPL

Chain of Sodium-dependent dopamine transporter (Q01959 whole entry): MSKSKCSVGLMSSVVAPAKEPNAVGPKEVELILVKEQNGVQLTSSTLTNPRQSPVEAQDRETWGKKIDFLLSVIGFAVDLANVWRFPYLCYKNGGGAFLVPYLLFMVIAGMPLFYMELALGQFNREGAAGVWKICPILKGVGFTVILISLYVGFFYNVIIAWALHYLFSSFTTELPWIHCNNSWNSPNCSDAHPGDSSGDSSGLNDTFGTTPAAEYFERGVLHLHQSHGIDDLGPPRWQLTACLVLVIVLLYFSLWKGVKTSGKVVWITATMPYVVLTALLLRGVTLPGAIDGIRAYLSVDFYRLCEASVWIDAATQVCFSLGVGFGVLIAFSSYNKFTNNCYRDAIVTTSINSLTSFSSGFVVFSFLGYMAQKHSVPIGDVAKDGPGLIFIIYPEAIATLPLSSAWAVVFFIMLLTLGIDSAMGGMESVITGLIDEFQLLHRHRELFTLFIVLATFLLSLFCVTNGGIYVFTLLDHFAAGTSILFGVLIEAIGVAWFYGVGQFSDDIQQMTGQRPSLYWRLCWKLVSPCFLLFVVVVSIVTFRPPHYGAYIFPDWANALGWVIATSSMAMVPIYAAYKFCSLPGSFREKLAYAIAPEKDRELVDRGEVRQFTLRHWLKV
Chain of Melanocortin receptor 5 (P33032 whole entry): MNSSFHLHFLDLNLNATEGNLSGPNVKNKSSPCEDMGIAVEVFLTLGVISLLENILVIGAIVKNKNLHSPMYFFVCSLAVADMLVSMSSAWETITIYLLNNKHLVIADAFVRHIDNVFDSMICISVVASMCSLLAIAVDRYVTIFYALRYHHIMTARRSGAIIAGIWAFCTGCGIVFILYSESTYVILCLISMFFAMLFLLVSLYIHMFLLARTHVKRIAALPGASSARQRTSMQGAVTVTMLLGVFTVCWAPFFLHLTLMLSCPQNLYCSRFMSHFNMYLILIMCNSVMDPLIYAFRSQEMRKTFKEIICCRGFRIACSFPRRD
Chain of Cannabinoid receptor 1 (P21554 whole entry): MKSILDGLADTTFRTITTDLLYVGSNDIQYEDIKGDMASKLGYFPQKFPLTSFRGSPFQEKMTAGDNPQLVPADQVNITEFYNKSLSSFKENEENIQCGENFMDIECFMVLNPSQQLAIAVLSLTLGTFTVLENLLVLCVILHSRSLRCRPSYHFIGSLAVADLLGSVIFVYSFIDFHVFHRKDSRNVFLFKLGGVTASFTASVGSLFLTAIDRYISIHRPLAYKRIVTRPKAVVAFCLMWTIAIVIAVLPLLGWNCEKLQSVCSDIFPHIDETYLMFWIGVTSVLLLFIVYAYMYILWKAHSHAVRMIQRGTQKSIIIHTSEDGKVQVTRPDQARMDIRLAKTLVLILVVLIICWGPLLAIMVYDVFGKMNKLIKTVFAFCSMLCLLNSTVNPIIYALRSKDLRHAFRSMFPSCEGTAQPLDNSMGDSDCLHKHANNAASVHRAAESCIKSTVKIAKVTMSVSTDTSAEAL
Chain of Platelet-activating factor receptor (P25105 whole entry): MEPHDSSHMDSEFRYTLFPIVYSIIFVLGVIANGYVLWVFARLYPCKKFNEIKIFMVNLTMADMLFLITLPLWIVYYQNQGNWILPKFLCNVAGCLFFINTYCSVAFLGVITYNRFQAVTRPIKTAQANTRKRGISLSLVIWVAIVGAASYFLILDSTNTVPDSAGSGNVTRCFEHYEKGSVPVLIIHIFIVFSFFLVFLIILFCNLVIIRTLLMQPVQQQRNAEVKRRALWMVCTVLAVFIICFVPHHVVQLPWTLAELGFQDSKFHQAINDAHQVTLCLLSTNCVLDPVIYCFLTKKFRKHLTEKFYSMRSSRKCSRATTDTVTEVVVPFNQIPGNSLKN

C=C1[C@@H]2CCC3[C@@](CC[C@@H]4[C@H](C(=O)O)C[C@@H](O[C@@H]5O[C@H](CO)[C@@H](OS(=O)(=O)[O-])[C@H](OS(=O)(=O)[O-])[C@H]5OC(=O)CC(C)C)C[C@@]34C)(C2)[C@@H]1O.[K+].[K+] (stereo not given in full) [ATRACTYLOSIDE]
Not Active: IC50 [1] | Ki [1] | IC50 [2] | IC50 [3] | Ki [3] | IC50 [4] | Ki [4] | IC50 [5] | IC50 [6] | IC50 [7] | IC50 [8] | IC50 [9] | IC50 [10] | IC50 [11] | IC50 [12]

CC1(C)[C@@H](O[C@H]2O[C@H](C(=O)O)[C@@H](O)[C@H](O)[C@H]2O[C@@H]2O[C@H](C(=O)O)[C@@H](O)[C@H](O)[C@H]2O)CC[C@]2(C)[C@H]3C(=O)C=C4[C@@H]5C[C@@](C)(C(=O)O)CC[C@]5(C)CC[C@@]4(C)[C@]3(C)CC[C@@H]12 [GLYCYRRHIZIN]
Not Active: IC50 [1] | Ki [1] | IC50 [2] | IC50 [3] | Ki [3] | IC50 [4] | Ki [4] | IC50 [5] | IC50 [6] | IC50 [7] | IC50 [8] | IC50 [9] | IC50 [10] | IC50 [11] | IC50 [12]

Cn1cnc([N+](=O)[O-])c1Sc1ncnc2nc[nH]c12 [AZATHIOPRINE]
Not Active: IC50 [1] | Ki [1] | IC50 [2] | IC50 [3] | Ki [3] | IC50 [4] | Ki [4] | IC50 [5] | IC50 [6] | IC50 [7] | IC50 [8] | IC50 [9] | IC50 [10] | IC50 [11] | IC50 [12]

CC(C)n1c(/C=C/C(O)CC(O)CC(=O)O)c(-c2ccc(F)cc2)c2ccccc21 (stereo not given) [FLUVASTATIN]
Not Active: IC50 [1] | Ki [1] | IC50 [2] | IC50 [3] | Ki [3] | IC50 [4] | Ki [4] | IC50 [5] | IC50 [6] | IC50 [7] | IC50 [8] | IC50 [9] | IC50 [10] | IC50 [11] | IC50 [12]

Cc1c(-c2ccccc2)oc2c(C(=O)OCCN3CCCCC3)cccc2c1=O [FLAVOXATE]
Not Active: IC50 [1] | Ki [1] | IC50 [2] | IC50 [3] | Ki [3] | IC50 [4] | Ki [4] | IC50 [5] | IC50 [6] | IC50 [7] | IC50 [8] | IC50 [9] | IC50 [10] | IC50 [11] | IC50 [12]

COc1ccc2c(c1)c(CC(=O)OCC(=O)O)c(C)n2C(=O)c1ccc(Cl)cc1 [ACEMETACIN]
Not Active: IC50 [1] | Ki [1] | IC50 [2] | IC50 [3] | Ki [3] | IC50 [4] | Ki [4] | IC50 [5] | IC50 [6] | IC50 [7] | IC50 [8] | IC50 [9] | IC50 [10] | IC50 [11] | IC50 [12]

COc1ccc([C@@H]2Sc3ccccc3N(CCN(C)C)C(=O)[C@@H]2OC(C)=O)cc1 [DILTIAZEM]
Not Active: IC50 [1] | Ki [1] | IC50 [2] | IC50 [3] | Ki [3] | IC50 [4] | Ki [4] | IC50 [5] | IC50 [6] | IC50 [7] | IC50 [8] | IC50 [9] | IC50 [10] | IC50 [11] | IC50 [12]

NCC[C@H](O)C(=O)N[C@@H]1C[C@H](N)[C@@H](O[C@H]2O[C@H](CN)[C@@H](O)[C@H](O)[C@H]2O)[C@H](O)[C@H]1O[C@H]1O[C@H](CO)[C@@H](O)[C@H](N)[C@H]1O [AMIKACIN]
Not Active: IC50 [1] | Ki [1] | IC50 [2] | IC50 [3] | Ki [3] | IC50 [4] | Ki [4] | IC50 [5] | IC50 [6] | IC50 [7] | IC50 [8] | IC50 [9] | IC50 [10] | IC50 [11] | IC50 [12]

CC(C)(Oc1ccc(CCNC(=O)c2ccc(Cl)cc2)cc1)C(=O)O [BEZAFIBRATE]
Not Active: IC50 [1] | Ki [1] | IC50 [2] | IC50 [3] | Ki [3] | IC50 [4] | Ki [4] | IC50 [5] | IC50 [6] | IC50 [7] | IC50 [8] | IC50 [9] | IC50 [10] | IC50 [11] | IC50 [12]
